From patent US9707234B2, “Spirocyclic hetercycle compounds useful as HIV integrase inhibitors” (MERCK SHARP & DOHME CORP., priority 2013, dated 2017)

System: HIV-1 (H9IIIB or NL4-3 virus) replication in MT4-GFP cells
Test: microbe, parasite or virus in culture
Assay type: cell-based
Conditions: Human immunodeficiency virus 1, NL43, MT4-GFP cells infected with HIV-1; 100% normal human serum; inhibition of reproductive ratio R0, 48-72 h post-infection; read-out: ViKinG IP (nM) with 100% NHS

`CCN1C(=O)c2c(O)c(=O)c(C(=O)NCc3ccc(F)cc3F)cn2N(C)C12CCNC2` (single isomer, unassigned) [Compound 171] and `CCN1C(=O)c2c(O)c(=O)c(-c3nnc(Cc4ccc(F)cc4F)s3)cn2N(C)C12CCNCC2` [Compound 32] are within 1.5-fold of each other in IC50: 88 nM for the first, 74 nM for the second.

First: CCN1C(=O)c2c(O)c(=O)c(-c3nnc(Cc4ccc(F)cc4F)s3)cn2N(C)C12CCN(C(=O)OC)CC2 [Compound 8]
Second: CCN1C(=O)c2c(O)c(=O)c(-c3nnc(Cc4ccc(F)cc4F)s3)cn2N(C)C12CCN(C(=O)OC(C)C)CC2 [Compound 9]
The IC50 of the first is 2.6-fold lower: 131 nM for the first, 344 nM for the second.

Going from `CCN1C(=O)c2c(O)c(=O)c(-c3nnc(Cc4ccc(F)cc4F)s3)cn2N(C)C12CCN(c1ncccn1)CC2` [Compound 17] to `CN1C(=O)c2c(O)c(=O)c(-c3nnc(Cc4ccc(F)cc4F)s3)cn2N(C)C12CCN(c1ccccn1)CC2` [Compound 30], the IC50 falls from 1520 nM to 280 nM (5.4-fold). The second is the more potent here.

In the case of `CN1C(=O)c2c(O)c(=O)c(-c3nnc(Cc4ccc(F)cc4F)s3)cn2N(C)C12CCN(C(N)=O)CC2` [Compound 29], the IC50 is reported as 2080 nM.

Same assay, conditions: Human immunodeficiency virus 1, NL43, MT4-GFP cells infected with HIV-1; serum free conditions (0% NHS); inhibition of reproductive ratio R0, 48-72 h post-infection; read-out: ViKinG IP (nM) with 0% NHS

`CCOC(=O)N1CCC2(C1)N(CC)C(=O)c1c(O)c(=O)c(C(=O)NCc3ccc(F)cc3F)cn1N2C` (single isomer, unassigned) [Compound 139] and `CCN1C(=O)c2c(O)c(=O)c(C(=O)NCc3ccc(F)cc3F)cn2N(C)C12CCNC2` (single isomer, unassigned) [Compound 171] are within 1.5-fold of each other in IC50: 1.5 nM for the first, 1.8 nM for the second.

Going from `CCN1n2cc(C(=O)NCc3ccc(F)cc3F)c(=O)c(O)c2C(=O)N(C)C12CCOC2` (single isomer, unassigned) [Compound 149] to `COCN1n2cc(C(=O)NCc3ccc(F)cc3F)c(=O)c(O)c2C(=O)N(C)C12CCOC2` (single isomer, unassigned) [Compound 153], the IC50 rises from 0.7 nM to 1.3 nM (1.9-fold). The first is the more potent here.

First: CN1C(=O)c2c(O)c(=O)c(C(=O)NCc3ccc(F)cc3F)cn2N(C)C12CCNC2 (single isomer, unassigned) [Compound 169]
Second: CN1C(=O)c2c(O)c(=O)c(-c3nnc(Cc4ccc(F)cc4F)s3)cn2N(C)C12CCN(C(N)=O)CC2 [Compound 29]
The IC50 of the first is 20-fold lower: 4.4 nM for the first, 89.1 nM for the second.

Compared with `CCN1C(=O)c2c(O)c(=O)c(-c3nnc(Cc4ccc(F)cc4F)s3)cn2N(C)C12CCN(C(=O)OC)CC2` [Compound 8], `CCN1C(=O)c2c(O)c(=O)c(-c3nnc(Cc4ccc(F)cc4F)s3)cn2N(C)C12CCN(C(=O)OC(C)C)CC2` [Compound 9] is 16-fold higher in IC50: 5.5 nM for the first, 89.7 nM for the second.

`CCN1C(=O)c2c(O)c(=O)c(-c3nnc(Cc4ccc(F)cc4F)s3)cn2N(C)C12CCN(c1ncccn1)CC2` [Compound 17] and `CN1C(=O)c2c(O)c(=O)c(-c3nnc(Cc4ccc(F)cc4F)s3)cn2N(C)C12CCN(c1ccccn1)CC2` [Compound 30] are within 1.5-fold of each other in IC50: 29.3 nM for the first, 38.5 nM for the second.

For `CCN1C(=O)c2c(O)c(=O)c(-c3nnc(Cc4ccc(F)cc4F)s3)cn2N(C)C12CCNCC2` [Compound 32], the IC50 was 8 nM.

Same assay, conditions: MT4-GFP cells infected with HIV-1; 100% normal human serum; inhibition of reproductive ratio R0, 48-72 h post-infection; read-out: ViKinG IP (nM) with 100% NHS

Going from `CC1OCCC12N(C)C(=O)c1c(O)c(=O)c(C(=O)NCc3cccc(Cl)c3F)cn1N2C` (single isomer, unassigned) [Compound 138] to `CN1C(=O)c2c(O)c(=O)c(C(=O)NCc3ccc(F)cc3F)cn2N(C)C12CCNC2` (single isomer, unassigned) [Compound 169], the IC50 rises from 134 nM to 512 nM (3.8-fold).

Compared with `CCOC(=O)N1CCC2(C1)N(CC)C(=O)c1c(O)c(=O)c(C(=O)NCc3ccc(F)cc3F)cn1N2C` (single isomer, unassigned) [Compound 139], `CCN1C(=O)c2c(O)c(=O)c(C(=O)NCc3ccc(F)cc3F)cn2N(C)C12CCNC2` (single isomer, unassigned) [Compound 172] is 4-fold lower in IC50: 247 nM for the first, 61 nM for the second.

`CCOC(=O)N1CCC2(C1)N(CC)C(=O)c1c(O)c(=O)c(C(=O)NCc3ccc(F)cc3F)cn1N2C` (single isomer, unassigned) [Compound 140] and `CN1C(=O)c2c(O)c(=O)c(C(=O)NCc3ccc(F)cc3F)cn2N(C)C12CCNC2` (single isomer, unassigned) [Compound 170] are within 1.5-fold of each other in IC50: 48 nM for the first, 66 nM for the second.

Going from `CCN1n2cc(C(=O)NCc3ccc(F)cc3F)c(=O)c(O)c2C(=O)N(C)C12CCOC2` (single isomer, unassigned) [Compound 149] to `COCN1n2cc(C(=O)NCc3ccc(F)cc3F)c(=O)c(O)c2C(=O)N(C)C12CCOC2` (single isomer, unassigned) [Compound 153], the IC50 rises from 144 nM to 275 nM (1.9-fold). The first is the more potent here.

Going from `CCN1n2cc(C(=O)NCc3ccc(F)cc3F)c(=O)c(O)c2C(=O)N(C)C12CCOC2` (single isomer, unassigned) [Compound 150] to `COCN1n2cc(C(=O)NCc3ccc(F)cc3F)c(=O)c(O)c2C(=O)N(C)C12CCOC2` (single isomer, unassigned) [Compound 154], the IC50 falls from 71 nM to 37 nM (1.9-fold). The second is the more potent here.

Going from `CN1C(=O)c2c(O)c(=O)c(C(=O)NCc3ccc(F)cc3F)cn2N(CC2CC2)C12CCOC2` (single isomer, unassigned) [Compound 152] to `COCCN1n2cc(C(=O)NCc3ccc(F)cc3F)c(=O)c(O)c2C(=O)N(C)C12CCOC2` (single isomer, unassigned) [Compound 155], the IC50 falls from 174 nM to 37 nM (4.7-fold).

First: COCCN1n2cc(C(=O)NCc3ccc(F)cc3F)c(=O)c(O)c2C(=O)N(C)C12CCOC2 (single isomer, unassigned) [Compound 156]
Second: COCCCN1n2cc(C(=O)NCc3ccc(F)cc3F)c(=O)c(O)c2C(=O)N(C)C12CCOC2 (single isomer, unassigned) [Compound 158]
The IC50 of the first is 1.6-fold lower: 106 nM for the first, 168 nM for the second. The first is the more potent here.

Going from `CCOP(=O)(CCN1n2cc(C(=O)NCc3ccc(F)cc3F)c(=O)c(O)c2C(=O)N(C)C12CCOC2)OCC` (single isomer, unassigned) [Compound 160] to `CN1C(=O)c2c(O)c(=O)c(C(=O)NCc3ccc(F)cc3F)cn2N(CCCC(F)(F)F)C12CCOC2` (single isomer, unassigned) [Compound 165], the IC50 rises from 46 nM to 146 nM (3.2-fold).

Molecule `CN1C(=O)c2c(O)c(=O)c(C(=O)NCc3ccc(F)cc3F)cn2N(Cc2ccccc2)C12CCOC2` (single isomer, unassigned) [Compound 162] has an IC50 of 72 nM.
With `CN1C(=O)c2c(O)c(=O)c(C(=O)NCc3ccc(F)cc3F)cn2N(Cc2ccccc2)C12CCOC2` (single isomer, unassigned) [Compound 163] the IC50 was 35 nM.

Same assay, conditions: MT4-GFP cells infected with HIV-1; serum free conditions (0% NHS); inhibition of reproductive ratio R0, 48-72 h post-infection; read-out: ViKinG IP (nM) with 0% NHS

First: CC1OCCC12N(C)C(=O)c1c(O)c(=O)c(C(=O)NCc3cccc(Cl)c3F)cn1N2C (single isomer, unassigned) [Compound 138]
Second: CN1C(=O)c2c(O)c(=O)c(C(=O)NCc3ccc(F)cc3F)cn2N(C)C12CCNC2 (single isomer, unassigned) [Compound 170]
The IC50 of the first is 8.3-fold lower: 0.6 nM for the first, 5 nM for the second.

`CCOC(=O)N1CCC2(C1)N(CC)C(=O)c1c(O)c(=O)c(C(=O)NCc3ccc(F)cc3F)cn1N2C` (single isomer, unassigned) [Compound 140] and `CCN1C(=O)c2c(O)c(=O)c(C(=O)NCc3ccc(F)cc3F)cn2N(C)C12CCNC2` (single isomer, unassigned) [Compound 172] are within 1.5-fold of each other in IC50: 1.7 nM for the first, 1.6 nM for the second.

`CCN1n2cc(C(=O)NCc3ccc(F)cc3F)c(=O)c(O)c2C(=O)N(C)C12CCOC2` (single isomer, unassigned) [Compound 150] and `COCN1n2cc(C(=O)NCc3ccc(F)cc3F)c(=O)c(O)c2C(=O)N(C)C12CCOC2` (single isomer, unassigned) [Compound 154] are within 1.5-fold of each other in IC50: 0.6 nM for the first, 0.7 nM for the second.

First: CN1C(=O)c2c(O)c(=O)c(C(=O)NCc3ccc(F)cc3F)cn2N(CC2CC2)C12CCOC2 (single isomer, unassigned) [Compound 152]
Second: COCCN1n2cc(C(=O)NCc3ccc(F)cc3F)c(=O)c(O)c2C(=O)N(C)C12CCOC2 (single isomer, unassigned) [Compound 156]
The IC50 of the first is 1.7-fold lower: 0.7 nM for the first, 1.2 nM for the second.

For `COCCCN1n2cc(C(=O)NCc3ccc(F)cc3F)c(=O)c(O)c2C(=O)N(C)C12CCOC2` (single isomer, unassigned) [Compound 158], the IC50 was 1 nM.
